Source: PubChem BioAssay AID330 (DTP/NCI, 2004)
“And” between values parts separate entries of the source, which are not always exact repeats. Identical values can stand only once. Inconclusive results and toxic doses are left out. Rule for the calls: active = survival T/C of 150% or more; inactive = T/C below 125% in these data.

Test system: P388 leukemia ip, CD2F1 mice, survival T/C
Assay: NCI In Vivo Anticancer Drug Screen. Data for tumor model P388 Leukemia (intraperitoneal) in CD2F1 (CDF1) mice
Conditions: endpoint: median survival time, higher = longer survival
Method in brief: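 Mice carrying the transplanted tumor received test compound or vehicle. Survival was recorded in each group, and the value is the treated-group measurement divided by that of the vehicle-treated control group.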

[1] = dose: 100.0 mg/kg/injection, schedule: Q01DX009 (ip), vehicle: saline with Tween-80
[2] = dose: 100.0 mg/kg/injection, schedule: Q04DX003 (ip), vehicle: saline with Tween-80
[3] = dose: 200.0 mg/kg/injection, schedule: Q01DX009 (ip), vehicle: saline with Tween-80
[4] = dose: 200.0 mg/kg/injection, schedule: Q04DX003 (ip), vehicle: saline with Tween-80
[5] = dose: 400.0 mg/kg/injection, schedule: Q01DX009 (ip), vehicle: saline with Tween-80
[6] = dose: 400.0 mg/kg/injection, schedule: Q04DX003 (ip), vehicle: saline with Tween-80
[7] = dose: 25.0 mg/kg/injection, schedule: Q01DX009 (ip), vehicle: Klucel (hydroxypropylcellulose) (HPC)
[8] = dose: 50.0 mg/kg/injection, schedule: Q01DX009 (ip), vehicle: Klucel (hydroxypropylcellulose) (HPC)
[9] = dose: 100.0 mg/kg/injection, schedule: Q01DX009 (ip), vehicle: Klucel (hydroxypropylcellulose) (HPC)
[10] = dose: 200.0 mg/kg/injection, schedule: Q01DX009 (ip), vehicle: Klucel (hydroxypropylcellulose) (HPC)
[11] = dose: 50.0 mg/kg/injection, schedule: Q01DX009 (ip), vehicle: saline with Tween-80
[12] = dose: 100.0 mg/kg/injection, schedule: Q04DX002 (ip), vehicle: saline with Tween-80
[13] = dose: 200.0 mg/kg/injection, schedule: Q04DX002 (ip), vehicle: saline with Tween-80
[14] = dose: 400.0 mg/kg/injection, schedule: Q04DX002 (ip), vehicle: saline with Tween-80
[15] = dose: 60.0 mg/kg/injection, schedule: Q01DX005 (ip), vehicle: saline with Tween-80
[16] = dose: 120.0 mg/kg/injection, schedule: Q01DX005 (ip), vehicle: saline with Tween-80
[17] = dose: 240.0 mg/kg/injection, schedule: Q01DX005 (ip), vehicle: saline with Tween-80
[18] = dose: 12.5 mg/kg/injection, schedule: Q01DX009 (ip), vehicle: saline with Tween-80
[19] = dose: 12.5 mg/kg/injection, schedule: Q01DX009 (ip), vehicle: Klucel (hydroxypropylcellulose) (HPC)
[20] = dose: 50.0 mg/kg/injection, schedule: Q01DX005 (ip), vehicle: saline with Tween-80
[21] = dose: 100.0 mg/kg/injection, schedule: Q01DX005 (ip), vehicle: saline with Tween-80
[22] = dose: 50.0 mg/kg/injection, schedule: Q01DX001 (ip), vehicle: Klucel (hydroxypropylcellulose) (HPC)
[23] = dose: 100.0 mg/kg/injection, schedule: Q01DX001 (ip), vehicle: Klucel (hydroxypropylcellulose) (HPC)
[24] = dose: 100.0 mg/kg/injection, schedule: Q01DX001 (ip), vehicle: saline with Tween-80
[25] = dose: 200.0 mg/kg/injection, schedule: Q01DX001 (ip), vehicle: saline with Tween-80
[26] = dose: 400.0 mg/kg/injection, schedule: Q01DX001 (ip), vehicle: saline with Tween-80
[27] = dose: 200.0 mg/kg/injection, schedule: Q01DX005 (ip), vehicle: saline with Tween-80
[28] = dose: 50.0 mg/kg/injection, schedule: Q01DX005 (ip), vehicle: Klucel (hydroxypropylcellulose) (HPC)
[29] = dose: 100.0 mg/kg/injection, schedule: Q01DX005 (ip), vehicle: Klucel (hydroxypropylcellulose) (HPC)
[30] = dose: 200.0 mg/kg/injection, schedule: Q01DX005 (ip), vehicle: Klucel (hydroxypropylcellulose) (HPC)

Measured: T/C

Cc1ccc(-c2cc(Cl)c3cc(S(=O)(=O)F)ccc3n2)cc1
inactive: [1] 104 % of control | [2] 100 % of control | [3] 100 % of control | [4] 100 % of control | [5] 104 % of control | [6] 100 % of control

CC1(C(=O)O)CCC2(C)CCC3(C)C(=CC(=O)C4C5(C)CCC(O)C(C)(C)C5CCC43C)C2C1 (stereo not given)
inactive: [7] 95 % of control | [8] 100 % of control | dose: 50.0 mg/kg/injection, schedule: Q04DX003 (ip), vehicle: Klucel (hydroxypropylcellulose) (HPC) 105 % of control | [9] 94 % of control | dose: 100.0 mg/kg/injection, schedule: Q04DX003 (ip), vehicle: Klucel (hydroxypropylcellulose) (HPC) 100 % of control | [10] 94 % of control | dose: 200.0 mg/kg/injection, schedule: Q04DX003 (ip), vehicle: Klucel (hydroxypropylcellulose) (HPC) 106 % of control

CCCc1c(C)nc2scc(-c3ccccc3)n2c1=O
inactive: [11] 105 % of control | [1] 99 % of control | [3] 99 % of control

CCOC(=O)N1CCC23C=C(OC)C(=O)C=C2C1Cc1ccc(OC)c(O)c13 (stereo not given)
inactive: [12] 100 % of control | [13] 105 % of control | [14] 93 % of control

COc1ccc(C2SCC(=O)N2c2nnc(C(F)(F)F)s2)c(OC)c1OC (stereo not given)
inactive: [12] 100 % of control | [13] 90 % of control | [14] 93 % of control

CCC1CCC(=O)NC1=O (stereo not given)
inactive: [15] 103 % of control | [16] 103 % of control | [17] 98 % of control

CC(C)(C)OOC(=O)C1CCCCC1
inactive: [15] 100 % of control | [16] 103 % of control | [17] 92 % of control

COc1cccc(CN2CCN(/N=C/c3c4c(O)c5c(O)c(C)c6c(c5c3O)C(=O)C(C)(O/C=C/C(OC)C(C)C(OC(C)=O)C(C)C(O)C(C)C(O)C(C)/C=C/C=C(C)C(=O)N4)O6)CC2)c1 (stereo not given)
inactive: [18] 120 % of control | dose: 25.0 mg/kg/injection, schedule: Q01DX009 (ip), vehicle: saline with Tween-80 118 % of control | [11] 112 % of control and 117 % of control | [1] 121 % of control

NC(Cc1cccc(F)c1)c1nn[nH]n1 (stereo not given)
inactive: dose: 50.0 mg/kg/injection, schedule: Q04DX003 (ip), vehicle: saline with Tween-80 100 % of control | [2] 93 % of control

CC(=O)OCC1OC(n2nc(/C=C/c3ccccc3)c(=O)n(-c3ccccc3)c2=S)C(OC(C)=O)C(OC(C)=O)C1OC(C)=O (stereo not given)
inactive: [2] 103 % of control | [4] 101 % of control | [6] 110 % of control

CCN(CC)CCNc1ccc([N+](=O)[O-])cc1[N+](=O)[O-]
inactive: dose: 6.25 mg/kg/injection, schedule: Q01DX009 (ip), vehicle: Klucel (hydroxypropylcellulose) (HPC) 93 % of control | [19] 105 % of control | [7] 114 % of control | [8] 99 % of control

CCOC(=O)CCC(NC(=O)c1ccc(NS(=O)(=O)c2ccc(C)cc2)cc1)C(=O)OCC (stereo not given)
inactive: dose: 3.13 mg/kg/injection, schedule: Q01DX009 (ip), vehicle: saline with Tween-80 93 % of control | dose: 6.25 mg/kg/injection, schedule: Q01DX009 (ip), vehicle: saline with Tween-80 93 % of control | [18] 86 % of control | [11] 110 % of control | [1] 100 % of control | [3] 99 % of control | [5] 99 % of control

C[C@@H]1CC2=CC(=O)CC[C@]2(C)[C@H]2CC[C@]3(C)[C@@H](O)CC[C@H]3[C@H]12
inactive: [1] 90 % of control | [3] 90 % of control

CCN(CC)CCSCCN(CC)CC
inactive: dose: 25.0 mg/kg/injection, schedule: Q01DX005 (ip), vehicle: saline with Tween-80 98 % of control | [20] 110 % of control | [21] 98 % of control

CCOC(=O)c1c(C)c2c(n1C)CCc1c-2nc(N)[nH]c1=O
inactive: [8] 97 % of control | [9] 97 % of control | [10] 88 % of control

CC(C)(C)C#CP(=O)(C#CC(C)(C)C)C#CC(C)(C)C
inactive: [22] 97 % of control | [23] 99 % of control | dose: 200.0 mg/kg/injection, schedule: Q01DX001 (ip), vehicle: Klucel (hydroxypropylcellulose) (HPC) 95 % of control

Cc1ccn2c(=O)c(Br)c(C)nc2c1
inactive: [24] 92 % of control | [25] 94 % of control | [26] 97 % of control

O=C(N/N=C/c1cc(Cl)ccc1O)C(=O)N/N=C/c1cc(Cl)ccc1O
inactive: dose: 50.0 mg/kg/injection, schedule: Q01DX009 (ip), vehicle: water 92 % of control | dose: 100.0 mg/kg/injection, schedule: Q01DX009 (ip), vehicle: water 92 % of control | dose: 200.0 mg/kg/injection, schedule: Q01DX009 (ip), vehicle: water 100 % of control

CCOP(=S)(OCC)Oc1ccc([N+](=O)[O-])cc1
inactive: dose: 0.06 mg/kg/injection, schedule: Q01DX009 (ip), vehicle: saline 102 % of control | dose: 0.12 mg/kg/injection, schedule: Q01DX009 (ip), vehicle: saline 106 % of control | dose: 0.25 mg/kg/injection, schedule: Q01DX009 (ip), vehicle: saline 107 % of control | dose: 0.5 mg/kg/injection, schedule: Q01DX009 (ip), vehicle: saline 100 % of control

CCOC(=O)CC1=CS/C(=C(\C#N)C(=O)OCC)N1c1ccccc1
inactive: [20] 100 % of control | [21] 100 % of control | [27] 100 % of control

Cc1cccc(OCC(O)CN2CC2)c1 (stereo not given)
inactive: [24] 112 % of control | [25] 120 % of control | [26] 103 % of control

Cc1cc(C)c(N(C)C)c(C)c1
inactive: [12] 109 % of control | [13] 110 % of control

Cc1ccc(S(=O)(=O)/C=C/c2ccc([N+](=O)[O-])o2)cc1
inactive: dose: 50.0 mg/kg/injection, schedule: Q01DX009 (ip), vehicle: suspension in saline 108 % of control | dose: 100.0 mg/kg/injection, schedule: Q01DX009 (ip), vehicle: suspension in saline 104 % of control | dose: 200.0 mg/kg/injection, schedule: Q01DX009 (ip), vehicle: suspension in saline 104 % of control

N#C/C(=C\c1cccs1)c1ccccc1
inactive: [11] 102 % of control | [1] 103 % of control | [3] 100 % of control | [5] 105 % of control

N#CC1=C(O)NC(O)=C(C#N)C12C(=O)Nc1ccccc12
inactive: [28] 98 % of control | [20] 104 % of control | [29] 101 % of control | [21] 104 % of control | [30] 99 % of control | [27] 104 % of control

NC(Cc1csc2ccc(Cl)cc12)C(=O)O (stereo not given)
inactive: [22] 102 % of control | [23] 100 % of control

C=CCCCC/C=C/C=C/C#CC#C/C=C/COC(C)=O
inactive: [19] 100 % of control | [7] 106 % of control | [8] 106 % of control | [9] 106 % of control

C[C@H]1CC[C@@H]2O[C@@]23C(=O)OC2OC(C)(C)[C@@H]([C@H]2O)[C@]13C
inactive: [28] 102 % of control | [29] 96 % of control | [30] 107 % of control

O=C1C(CBr)(CBr)CCC12CN=C(Br)C2 (stereo not given)
inactive: [20] 100 % of control | [21] 98 % of control | [27] 100 % of control

CC(=O)NCC(C)C
inactive: dose: 100.0 mg/kg/injection, schedule: Q01DX001 (ip), vehicle: saline 100 % of control | dose: 200.0 mg/kg/injection, schedule: Q01DX001 (ip), vehicle: saline 100 % of control | dose: 400.0 mg/kg/injection, schedule: Q01DX001 (ip), vehicle: saline 100 % of control
